Test results reported in patent publication USRE43802E1, “α- and β-amino acid hydroxyethylamino sulfonamides useful as retroviral protease inhibitors” (G.D. Searle LLC, priority 1992, dated 2012).

The compounds below were run against T1, HIV protease (Human immunodeficiency virus type 1 group M subtype B, UniProt P04585) (assay: HIV protease enzyme assay (fluorescence, substrate 2-Ile-Nle-Phe(p-NO2)-Gln-ArgNH2)). Conditions: IC50 (nM), Table 21; HIV protease enzyme assay.
T1 construct: HIV protease is diluted in the assay buffer to a final enzyme concentration of 12.3 nanomolar, based on a molecular weight of 10,780
Assay type: biochemical
Method: The enzyme method is described below. […] The positive control is MVT-101 (Miller, M. et al, Science, 246, 1149 (1989)] The assay conditions are as follows:
Assay buffer: 20 mM sodium phosphate, pH 6.4 20% glycerol 1 mM EDTA 1 mM DTT 0.1% CHAPS
The above described substrate is dissolved in DMSO, then diluted 10 fold in assay buffer. Final substrate concentration in the assay is 80 μM.
The final concentration of DMSO is 14% and the final concentration of glycerol is 18%. The test compound is dissolved in DMSO and diluted in DMSO to 10× the test concentration; 10 μl of the enzyme preparation is added, the materials mixed and then the mixture is incubated at ambient temperature for 15 minutes. The enzyme reaction is initiated by the addition of 40 μl of substrate. The increase in fluorescence is monitored at 4 time points (0, 8, 16 and 24 minutes) at ambient temperature. Each assay is carried out in duplicate wells.
Compound `CC(C)CCN(C[C@@H](O)[C@H](Cc1ccccc1)NC(=O)[C@@H](NC(=O)CN(C)C)C(C)(C)C)S(C)(=O)=O` [Entry 6] has an IC50 of over 100 nM.
`CC(C)CCN(C[C@@H](O)[C@H](Cc1ccccc1)NC(=O)c1ccccc1)S(=O)(=O)c1ccccc1` [Entry 8] was tested, and the IC50 was 85 nM.
Work on `CC(C)CCN(C[C@@H](O)[C@H](Cc1ccccc1)NC(=O)[C@@H](NC(=O)CN(C)C)C(C)(C)C)S(=O)(=O)c1ccccc1` [Entry 11] yielded an IC50 of 3 nM.
`CC(C)CCN(C[C@@H](O)[C@H](Cc1ccccc1)NC(=O)[C@H](Cc1cnc[nH]1)NC(=O)c1ccc2ccccc2n1)S(=O)(=O)c1ccccc1` [Entry 12] gave an IC50 of 2 nM.
In the case of `CCC(C)[C@H](NC(=O)CN(C)C)C(=O)N[C@@H](Cc1ccccc1)[C@H](O)CN(CCC(C)C)S(=O)(=O)c1ccccc1` (some centres unmarked) [Entry 14], the IC50 is reported as 4 nM.

Same assay, conditions: Table 18A; HIV protease enzyme assay; read-out: IC50
Compound `O=C(N[C@@H](Cc1ccccc1)[C@H](O)CN(C1CCCCC1)S(=O)(=O)c1ccccc1)OCc1ccccc1` [Entry 5] has an IC50 of 19 nM.
Compound `CC(C)CCN(C[C@@H](O)[C@H](Cc1ccccc1)NC(=O)OCc1ccccc1)S(=O)(=O)c1ccc([N+](=O)[O-])cc1` [Entry 6] has an IC50 of 10 nM.
With `CCCN(C[C@@H](O)[C@H](Cc1ccccc1)NC(=O)[C@H](CC(N)=O)NC(=O)OCc1ccccc1)S(=O)(=O)c1ccccc1` [Entry 7] the IC50 was 3.6 nM.
`CC(C)CCN(C[C@@H](O)[C@H](Cc1ccccc1)NC(=O)[C@H](Cc1c[nH]cn1)NC(=O)OCc1ccccc1)S(=O)(=O)c1ccccc1` [Entry 8] showed an IC50 of 4.2 nM.
`CC(C)CCN(C[C@@H](O)[C@H](Cc1ccccc1)NC(=O)[C@@H](NC(=O)CN(C)C)C(C)(C)C)S(=O)(=O)c1ccccc1` [Entry 9] showed an IC50 of 3.5 nM.
With `CC(C)CCN(C[C@@H](O)[C@H](Cc1ccccc1)NC(=O)OCc1ccccc1)S(=O)(=O)c1cccs1` [Entry 10] the IC50 was 100 nM.
`CC(C)CCN(C[C@@H](O)[C@H](Cc1ccccc1)NC(=O)[C@@H](NC(=O)OCc1ccccc1)C(C)(C)C)S(C)(=O)=O` [Entry 11] showed an IC50 of 81 nM.
For `CCOc1ccc(S(=O)(=O)N(CC(C)C)C[C@@H](O)[C@H](Cc2ccccc2)NC(=O)OCc2ccccc2)cc1` [Entry 12], the IC50 was 20 nM.

Same assay, conditions: Table 21; HIV protease enzyme assay; read-out: IC50
With `O=C(N[C@@H](Cc1ccccc1)[C@H](O)CN(C1CCCCC1)S(=O)(=O)c1ccccc1)OCc1ccccc1` [Entry 5] the IC50 was 19 nM.
Compound `COCCCN(C[C@@H](O)[C@H](Cc1ccccc1)NC(=O)OCc1ccccc1)S(=O)(=O)c1ccccc1` [Entry 9] has an IC50 of 53 nM.
In the case of `CSCCCN(C[C@@H](O)[C@H](Cc1ccccc1)NC(=O)OCc1ccccc1)S(=O)(=O)c1ccccc1` [Entry 10], the IC50 is reported as 45 nM.
With `CCC(C)[C@H](NC(=O)CN(C)C)C(=O)N[C@@H](Cc1ccccc1)[C@H](O)CN(CC(C)C)S(=O)(=O)c1ccc(OC)cc1` (some centres unmarked) [Example 13] the IC50 was 3 nM.
`CC(C)CN(C[C@@H](O)[C@H](Cc1ccccc1)NC(=O)OCc1cccnc1)S(=O)(=O)c1ccc(Cl)cc1` [Example 18] was tested, and the IC50 was 4 nM.
For `CC(C)CN(C[C@@H](O)[C@H](Cc1ccccc1)NC(=O)OCc1cccnc1)S(=O)(=O)c1ccc([N+](=O)[O-])cc1` [Example 19], the IC50 was 8 nM.
`CC(C)CN(C[C@@H](O)[C@H](Cc1ccccc1)NC(=O)OCc1cccnc1)S(=O)(=O)c1ccc(O)cc1` [Example 20] was tested, and the IC50 was 4 nM.
Work on `COc1ccc(S(=O)(=O)N(CC(C)C)C[C@@H](O)[C@H](Cc2ccccc2)NC(=O)OCc2ccccn2)cc1` [Example 21] yielded an IC50 of 73 nM.
In the case of `COc1ccc(S(=O)(=O)N(CC(C)C)C[C@@H](O)[C@H](Cc2ccccc2)NC(=O)OCc2cncnc2)cc1` [Example 23], the IC50 is reported as 2 nM.
With `COc1ccc(S(=O)(=O)N(CC(C)C)C[C@@H](O)[C@H](Cc2ccccc2)NC(=O)OCc2cc[n+]([O-])cc2)cc1` [Example 26] the IC50 was 68 nM.
`COc1ccc(S(=O)(=O)N(CC(C)C)C[C@@H](O)[C@H](Cc2ccccc2)NC(=O)C2CCCCC2)cc1` [Example 35] gave an IC50 of 18 nM.
Work on `COc1ccc(S(=O)(=O)N(CC(C)C)C[C@@H](O)[C@H](Cc2ccccc2)NC(=O)c2cccc(N(C)C)c2C)cc1` [Example 36] yielded an IC50 of 310 nM.
In the case of `Cc1ccccc1C(=O)N[C@@H](Cc1ccccc1)[C@H](O)CN(CC(C)C)S(=O)(=O)c1ccc(O)cc1` [Example 37], the IC50 is reported as 7 nM.
In the case of `COc1ccc(S(=O)(=O)N(CC(C)C)C[C@@H](O)[C@H](Cc2ccccc2)NC(=O)OCc2ccc(N)nc2)cc1` [Example 38], the IC50 is reported as 4 nM.
For `COc1ccc(S(=O)(=O)N(CC(C)C)C[C@@H](O)[C@H](Cc2ccccc2)NC(=O)OCc2ccc(O)nc2)cc1` [Example 39], the IC50 was 16 nM.
For `CC(C)CN(C[C@@H](O)[C@H](Cc1ccccc1)NC(=O)OCc1ccc(N)nc1)S(=O)(=O)c1ccc(O)cc1` [Example 40], the IC50 was 3 nM.
With `CC(C)CN(C[C@@H](O)[C@H](Cc1ccccc1)NC(=O)OCc1cncnc1)S(=O)(=O)c1ccc(O)cc1` [Example 41] the IC50 was 3 nM.
In the case of `CC(C)CN(C[C@@H](O)[C@H](Cc1ccccc1)NC(=O)O[C@H]1CCSC1)S(=O)(=O)c1ccc(O)cc1` [Example 42], the IC50 is reported as 2 nM.
`CC(C)CN(C[C@@H](O)[C@H](Cc1ccccc1)NC(=O)O[C@H]1CCS(=O)(=O)C1)S(=O)(=O)c1ccc(O)cc1` [Example 43] was tested, and the IC50 was 4 nM.
`COc1ccc(S(=O)(=O)N(CC(C)C)C[C@@H](O)[C@H](Cc2ccccc2)NC(=O)O[C@H]2CCOC2)cc1` [Example 44] gave an IC50 of 4 nM.
`CC(C)CN(C[C@@H](O)[C@H](Cc1ccccc1)NC(=O)O[C@H]1CCOC1)S(=O)(=O)c1ccc(O)cc1` [Example 45] showed an IC50 of 2 nM.
Compound `COc1ccc(S(=O)(=O)N(CC(C)C)C[C@@H](O)[C@H](Cc2ccccc2)NC(=O)O[C@H]2CCSC2)cc1` [Example 46] has an IC50 of 2 nM.
Work on `COc1ccc(S(=O)(=O)N(CC(C)C)C[C@@H](O)[C@H](Cc2ccccc2)NC(=O)O[C@H]2CCS(=O)(=O)C2)cc1` [Example 47] yielded an IC50 of 3 nM.
`COc1ccc(S(=O)(=O)N(CC(C)C)C[C@@H](O)[C@H](Cc2ccccc2)NC(=O)c2cccc([N+](=O)[O-])c2C)cc1` [Example 48] gave an IC50 of 17 nM.
For `COc1ccc(S(=O)(=O)N(CC(C)C)C[C@@H](O)[C@H](Cc2ccccc2)NC(=O)c2ccc([N+](=O)[O-])cc2C)cc1` [Example 50], the IC50 was 14 nM.
With `COc1ccc(S(=O)(=O)N(CC(C)C)C[C@@H](O)[C@H](Cc2ccccc2)NC(=O)c2cc([N+](=O)[O-])ccc2C)cc1` [Example 53] the IC50 was 21 nM.
`COc1ccc(S(=O)(=O)N(CC(C)C)C[C@@H](O)[C@H](Cc2ccccc2)NC(=O)c2cc(N(C)C)ccc2C)cc1` [Example 55] gave an IC50 of 37 nM.
Compound `COc1ccc(S(=O)(=O)N(CC(C)C)C[C@@H](O)[C@H](Cc2ccccc2)NC(=O)OCc2cncs2)cc1` [Example 56] has an IC50 of 4 nM.
`CC(C)CN(C[C@@H](O)[C@H](Cc1ccccc1)NC(=O)OCc1cncs1)S(=O)(=O)c1ccc(O)cc1` [Example 57] gave an IC50 of 4 nM.
`COc1ccc(S(=O)(=O)N(CC(C)C)C[C@@H](O)[C@H](Cc2ccccc2)NC(=O)OCc2ccoc2)cc1` [Example 58] was tested, and the IC50 was 2 nM.
Work on `CC(C)CN(C[C@@H](O)[C@H](Cc1ccccc1)NC(=O)OCc1ccoc1)S(=O)(=O)c1ccc(N)cc1` [Example 60] yielded an IC50 of 5 nM.
`CC(C)CN(C[C@@H](O)[C@H](Cc1ccccc1)NC(=O)OCc1cncs1)S(=O)(=O)c1ccc(N)cc1` [Example 61] gave an IC50 of 16 nM.
`Cc1ccccc1C(=O)N[C@@H](Cc1ccccc1)[C@H](O)CN(CC(C)C)S(=O)(=O)c1ccc(N)cc1` [Example 62] was tested, and the IC50 was 28 nM.
`Cc1c(O)cccc1C(=O)N[C@@H](Cc1ccccc1)[C@H](O)CN(CC(C)C)S(=O)(=O)c1ccc(N)cc1` [Example 63] showed an IC50 of 7 nM.
